One experiment has as its target T1, CRF1R (Homo sapiens, UniProt P34998).
T1 sequence (P34998 24-415): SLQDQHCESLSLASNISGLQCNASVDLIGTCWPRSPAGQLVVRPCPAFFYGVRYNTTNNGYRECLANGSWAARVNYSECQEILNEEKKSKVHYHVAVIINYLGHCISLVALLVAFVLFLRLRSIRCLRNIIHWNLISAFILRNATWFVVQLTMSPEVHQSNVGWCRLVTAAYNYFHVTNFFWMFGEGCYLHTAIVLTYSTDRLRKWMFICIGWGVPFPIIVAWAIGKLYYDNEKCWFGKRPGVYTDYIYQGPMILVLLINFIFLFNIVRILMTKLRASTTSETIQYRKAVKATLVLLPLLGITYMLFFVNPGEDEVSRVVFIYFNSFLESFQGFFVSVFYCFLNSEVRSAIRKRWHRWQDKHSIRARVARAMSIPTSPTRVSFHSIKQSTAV
The experiment is described as follows: CRF1R agonist activation (EC50 / Emax), called comparative CRF binding. It is filed as cell-based. The conditions noted are these: read-out: CRF1R Emax. The source says: (§1) The pharmacological activity and selectivity of the peptides of present invention can be determined using published test procedures. See, e.g, U.S. patent application Ser. No. 09/799,978 (now issued U.S. Pat. No. 6,670,140). Because CRF2R and CRF1R are homologous proteins, it is expected that a certain proportion of agonists for CRF2R will also function as agonists of CRF1R. As discussed above, activation of CRF1R induces activation of the HPA axis since increased corticosteroid production leads to skeletal muscle atrophy. In most cases in which an increase in muscle mass or function is desired, it is not desirable to activate the HPA axis.
(§2) Cell-based assays include the steps of contacting cells which express CRF1R or CRF2R with a peptide of the present invention or control and measuring activation of the CRFR by measuring the expression or activity of components of the CRFR signal transduction pathways.
(§3) For example, after contact with a peptide of the present invention, lysates of the cells can be prepared and assayed for induction of cAMP. cAMP is induced in response to Gαs activation. Because Gαs is activated by receptors other than CRFR and because a test peptide may be exerting its effect through CRFRs or by another mechanism, two control comparisons are relevant for determining whether the peptide increases levels of cAMP via activation of a CRFR. One control compares the cAMP level of cells contacted with the peptide and the cAMP level of cells contacted with a control compound (i.e., the vehicle in which the peptide is dissolved).
(§4) In one example, cAMP induction is measured with the use of DNA constructs containing the cAMP responsive element linked to any of a variety of reporter genes can be introduced into cells expressing CRFRs. Such reporter genes include, but are not limited to, chloramphenicol acetyltransferase (CAT), luciferase, glucuronide synthetase, growth hormone, fluorescent proteins (e.g., Green Fluorescent Protein), or alkaline phosphatase. Following exposure of the cells to the peptide, the level of reporter gene expression can be quantitated to determine the peptide's ability to increase cAMP levels and thus determine the peptide's ability to activate the CRFR.
(§5) In addition to using cells expressing full length CRFRs, cells can be engineered which express CRFRs containing the ligand binding domain of the receptor coupled to, or physically modified to contain, reporter elements or to interact with signaling proteins. For example, a wild type CRFR or CRFR fragment can be fused to a G-protein resulting in activation of the fused G-protein upon agonist binding to the CRFR portion of the fusion protein. […] In addition, alternative pathways for induction of the CRE reporter could be eliminated to reduce basal levels.

The next experiment deals with T2, CRF2R (Homo sapiens, UniProt Q13324).
T2 sequence (Q13324 1-411): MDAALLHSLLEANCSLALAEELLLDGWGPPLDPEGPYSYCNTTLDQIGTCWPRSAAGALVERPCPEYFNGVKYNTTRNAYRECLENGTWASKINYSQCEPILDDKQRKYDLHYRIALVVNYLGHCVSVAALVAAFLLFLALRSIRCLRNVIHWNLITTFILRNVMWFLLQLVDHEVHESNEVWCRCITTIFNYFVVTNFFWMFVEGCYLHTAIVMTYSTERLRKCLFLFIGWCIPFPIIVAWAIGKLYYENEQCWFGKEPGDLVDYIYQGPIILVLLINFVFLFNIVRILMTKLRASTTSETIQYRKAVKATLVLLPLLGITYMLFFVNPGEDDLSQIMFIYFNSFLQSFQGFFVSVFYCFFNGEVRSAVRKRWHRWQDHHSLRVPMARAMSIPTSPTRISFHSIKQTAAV
Put plainly: CRF2R agonist activation (EC50 / Emax), called comparative CRF binding. Particulars: read-out: CRF2R Emax. It counts as cell-based.
Source text: as §1, §2, §3, §4, §5

Peptide text beside a SMILES is read from it.

Broadly, the Emax is the maximal effect, on the per cent scale that the assay sets. As for `CC[C@H](C)[C@H](N)C(=O)N[C@H](C(=O)N[C@@H](CC(C)C)C(=O)N[C@@H](CO)C(=O)N[C@@H](CC(C)C)C(=O)N[C@@H](CC(=O)O)C(=O)N[C@H](C(=O)N1CCC[C@H]1C(=O)NCC(=O)N1CCC[C@H]1C(=O)N[C@@H](CC(C)C)C(=O)N[C@@H](CC(C)C)C(=O)N[C@@H](CCC(N)=O)C(=O)N[C@H](C(=O)N[C@@H](CC(C)C)C(=O)N[C@@H](CC(C)C)C(=O)N[C@@H](CCC(=O)O)C(=O)N[C@@H](CCC(N)=O)C(=O)N[C@H](C(=O)N[C@@H](CCCCN)C(=O)N[C@@H](CCC(N)=O)C(=O)N[C@@H](CCC(=O)O)C(=O)N[C@@H](C)C(=O)N[C@@H](C)C(=O)N[C@@H](CCCNC(=N)N)C(=O)N[C@@H](CCC(=O)O)C(=O)N[C@@H](CCC(N)=O)C(=O)N[C@@H](C)C(=O)N[C@H](C(=O)N[C@H](C(=O)N[C@@H](CC(N)=O)C(=O)N[C@@H](C)C(=O)N[C@@H](CCCNC(=N)N)C(=O)N[C@H](C(=O)N[C@@H](CC(C)C)C(=O)N[C@@H](C)C(=O)N[C@@H](CCCNC(=N)N)C(=O)N[C@H](C(N)=O)C(C)C)[C@@H](C)CC)[C@@H](C)O)[C@@H](C)O)[C@@H](C)O)[C@@H](C)CC)C(C)C)C(C)C` [compound 5] (H-IVLSLDVPGPLLQILLEQTKQEAAREQATTNARILARV-NH2), the Emax on CRF1R stood at 9%; at CRF2R, 12%.

`CC[C@H](C)[C@H](N)C(=O)N[C@H](C(=O)N[C@@H](CC(C)C)C(=O)N[C@@H](CO)C(=O)N[C@@H](CC(C)C)C(=O)N[C@@H](CC(=O)O)C(=O)N[C@H](C(=O)N1CCC[C@H]1C(=O)N[C@H](C(=O)NCC(=O)N[C@@H](CC(C)C)C(=O)N[C@@H](CC(C)C)C(=O)N[C@@H](CCC(N)=O)C(=O)N[C@H](C(=O)N[C@@H](CC(C)C)C(=O)N[C@@H](CC(C)C)C(=O)N[C@@H](CCC(=O)O)C(=O)N[C@@H](CCC(N)=O)C(=O)N[C@@H](C)C(=O)N[C@@H](CCCNC(=N)N)C(=O)N[C@@H](C)C(=O)N[C@@H](CCCNC(=N)N)C(=O)N[C@@H](C)C(=O)N[C@@H](C)C(=O)N[C@@H](CCCNC(=N)N)C(=O)N[C@@H](CCC(=O)O)C(=O)N[C@@H](CCC(N)=O)C(=O)N[C@@H](C)C(=O)N[C@H](C(=O)N[C@H](C(=O)N[C@@H](CCC(N)=O)C(=O)N[C@@H](C)C(=O)N[C@@H](CCCNC(=N)N)C(=O)N[C@H](C(=O)N[C@@H](CC(C)C)C(=O)N[C@@H](C)C(=O)N[C@@H](CCCNC(=N)N)C(=O)N[C@H](C(N)=O)C(C)C)[C@@H](C)CC)[C@@H](C)O)[C@@H](C)O)[C@@H](C)CC)[C@@H](C)CC)C(C)C)C(C)C` [compound 9] (H-IVLSLDVPIGLLQILLEQARARAAREQATTQARILARV-NH2): the maximal effect (Emax) at CRF1R turned out to be 10%; at CRF2R, 34%.

With `CC[C@H](C)[C@H](NC(=O)[C@H](CC(=O)O)NC(=O)[C@H](CC(C)C)NC(=O)[C@H](CC(C)C)NC(=O)[C@H](CCCCN)NC(=O)[C@H](CCCNC(=N)N)NC(=O)[C@H](CC(N)=O)NC(=O)[C@H](CO)NC(=O)[C@H](Cc1c[nH]cn1)NC(=O)[C@H](C)NC(=O)[C@H](CCC(N)=O)NC(=O)[C@H](CCC(N)=O)NC(=O)[C@H](C)NC(=O)[C@H](CC(C)C)NC(=O)[C@H](CCC(N)=O)NC(=O)[C@H](CC(=O)O)NC(=O)[C@H](C)NC(=O)[C@H](CCCCN)NC(=O)[C@@H](NC(=O)[C@H](CCSC)NC(=O)[C@H](CCC(=O)O)NC(=O)[C@H](CC(C)C)NC(=O)[C@@H](NC(=O)[C@H](CCC(=O)O)NC(=O)[C@H](CCCNC(=N)N)NC(=O)[C@H](CC(C)C)NC(=O)[C@H](CC(C)C)NC(=O)[C@H](Cc1c[nH]cn1)NC(=O)[C@H](Cc1ccccc1)NC(=O)[C@@H]1CCCN1C(=O)[C@H](CC(C)C)NC(=O)[C@H](CC(=O)O)NC(=O)[C@H](CC(C)C)NC(=O)[C@H](CO)NC(=O)[C@@H](NC(=O)[C@@H]1CCCN1C(=O)[C@@H]1CCCN1C(=O)[C@H](CCC(=O)O)NC(=O)[C@H](CCC(N)=O)NC(=O)[C@@H](N)CO)[C@@H](C)CC)C(C)C)[C@@H](C)O)C(=O)N[C@@H](C)C(N)=O` [compound 104], the results for the Emax on CRF1R and at CRF2R were 11.1% and 4.5%, respectively.

The record behind these values is patent US6936585B2, “Corticotropin releasing factor 2 receptor agonists” (priority 2002, dated 2005).
